# Measured values as given in publication PMC5601486, “Identification of 4-phenylquinolin-2(1H)-one as a specific allosteric inhibitor of Akt” (Scientific Reports, 2017).
# Legend:
# AURKB = assay: KINOMEscan; details: 50000 nM
# Procedure: KINOMEscan™ selectivity screen
# (§1) The assay was perfor med at DiscoveRx Corporation according the methods published previously5. Briefly, Kinase-tagged T7 phage strains were grown in parallel in an E. coli host derived from the BL21 strain. E. coli were grown to log-phase and infected with T7 phage from a frozen stock and incubated with shaking at 32°C until lysis (90-150 minutes). The kinases were produced in HEK-293 cells and subsequently tagged with DNA for qPCR detection. Streptavidin-coated magnetic beads were treated with biotinylated small molecule ligands to generate affinity resins for kinase
# (§2) inhibitor or DMSO control was performed in polypropylene 384-well plates for 1 hr at room temperature. After wash with PBS buffer containing 0.05% Tween 20, the beads were incubated in elution buffer (PBS containing 0.05 % Tween 20 and 0.5 μM non-biotinylated affinity ligand) for 30 minutes at room temperature. The kinase concentration in the eluates was measured by qPCR.
# [1] = test system: ABL1(F317I)-phosphorylated; assay: KINOMEscan; details: 50000 nM
# Procedure: KINOMEscan™ selectivity screen
# as §1, §2
# RET(V804L) = assay: KINOMEscan; details: 50000 nM
# Procedure: KINOMEscan™ selectivity screen
# as §1, §2
# [2] = test system: RSK1(Kin.Dom.1-N-terminal); assay: KINOMEscan; details: 50000 nM
# Procedure: KINOMEscan™ selectivity screen
# (§3) Briefly, Kinase-tagged T7 phage strains were grown in parallel in an E. coli host derived from the BL21 strain. E. coli were grown to log-phase and infected with T7 phage from a frozen stock and incubated with shaking at 32°C until lysis (90-150 minutes). The kinases were produced in HEK-293 cells and subsequently tagged with DNA for qPCR detection. Streptavidin-coated magnetic beads were treated with biotinylated small molecule ligands to generate affinity resins for kinase
# as §2
# MUSK = assay: KINOMEscan; details: 50000 nM
# Procedure: KINOMEscan™ selectivity screen
# The kinases were produced in HEK-293 cells and subsequently tagged with DNA for qPCR detection. Streptavidin-coated magnetic beads were treated with biotinylated small molecule ligands to generate affinity resins for kinase
# as §2
# NEK7 = assay: KINOMEscan; details: 50000 nM
# Procedure: KINOMEscan™ selectivity screen
# as §1, §2
# ACVR2B = assay: KINOMEscan; details: 50000 nM
# Procedure: KINOMEscan™ selectivity screen
# as §1, §2
# EPHA3 = assay: KINOMEscan; details: 50000 nM
# Procedure: KINOMEscan™ selectivity screen
# as §1, §2
# PIK3CB = assay: KINOMEscan; details: 50000 nM
# Procedure: KINOMEscan™ selectivity screen
# as §3, §2
# MINK = assay: KINOMEscan; details: 50000 nM
# Procedure: KINOMEscan™ selectivity screen
# as §1, §2
# PDPK1 = assay: KINOMEscan; details: 50000 nM
# Procedure: KINOMEscan™ selectivity screen
# as §1, §2
# ICK = assay: KINOMEscan; details: 50000 nM
# Procedure: KINOMEscan™ selectivity screen
# as §3, §2
# MET = assay: KINOMEscan; details: 50000 nM
# Procedure: KINOMEscan™ selectivity screen
# as §1, §2
# PCTK2 = assay: KINOMEscan; details: 50000 nM
# Procedure: KINOMEscan™ selectivity screen
# as §1, §2
# PRKR = assay: KINOMEscan; details: 50000 nM
# Procedure: KINOMEscan™ selectivity screen
# as §1, §2
# YSK1 = assay: KINOMEscan; details: 50000 nM
# Procedure: KINOMEscan™ selectivity screen
# as §1, §2
# EGFR(L747-T751del,Sins) = assay: KINOMEscan; details: 50000 nM
# Procedure: KINOMEscan™ selectivity screen
# as §3, §2
# EGFR(L861Q) = assay: KINOMEscan; details: 50000 nM
# Procedure: KINOMEscan™ selectivity screen
# as §3, §2
# MARK4 = assay: KINOMEscan; details: 50000 nM
# Procedure: KINOMEscan™ selectivity screen
# as §1, §2
# SGK2 = assay: KINOMEscan; details: 50000 nM
# Procedure: KINOMEscan™ selectivity screen
# as §3, §2
# ERN1 = assay: KINOMEscan; details: 50000 nM
# Procedure: KINOMEscan™ selectivity screen
# as §3, §2
# RET(M918T) = assay: KINOMEscan; details: 50000 nM
# Procedure: KINOMEscan™ selectivity screen
# as §1, §2
# ALK = assay: KINOMEscan; details: 50000 nM
# Procedure: KINOMEscan™ selectivity screen
# as §1, §2
# AMPK-alpha1 = assay: KINOMEscan; details: 50000 nM
# Procedure: KINOMEscan™ selectivity screen
# as §1, §2
# LATS1 = assay: KINOMEscan; details: 50000 nM
# Procedure: KINOMEscan™ selectivity screen
# as §1, §2
# [3] = test system: ABL1(H396P)-phosphorylated; assay: KINOMEscan; details: 50000 nM
# Procedure: KINOMEscan™ selectivity screen
# as §1, §2
# MKNK2 = assay: KINOMEscan; details: 50000 nM
# Procedure: KINOMEscan™ selectivity screen
# as §3, §2
# AXL = assay: KINOMEscan; details: 50000 nM
# Procedure: KINOMEscan™ selectivity screen
# as §1, §2
# SGK1 = test system: T1, SGK1; assay: ADP-Glo kinase assay; assay type: biochemical; details: 50 µM
# T1 construct: purchased Promega V2911
# Procedure: Elisa Assay for phosphorylation of Akt
# Neuro 2A cells in 48-well plates were incubated with the inhibitor for 30 minutes at 37°C followed by IGF stimulation for 30 min. Cells were lysed and subjected to Elisa assay using an Akt (S473) InstantOne Elisa kit (ThermoFisher Scientific, # 8586042-11) in accordance with manufacturer ’s instruction.
# An ADP-GloTM kinase assay kit (Promega, # V9101) was used to measure the activity of PDK1 or SGK1 in accordance with the manufacturer’s instructions. For PDK1 assay, the reaction mixture included 5 µM ATP, 50 µM inhibitor, 100 ng recombinant PDK1 and 2 µg PDKtide substrate (Promega, #V2761) prior to the addition of the ADP-Glo reagents. For SGK1, 5 µM ATP, 50 µM inhibitor, 10 ng SGK1 and 1 µg Akt substrate peptide (Promega, #V2911) were used. Staurosporine at concentration between 0.4 and 4,000 nM or the SGK1 inhibitor GSK-650394 (Tocris Bioscience) between 7 and 2,000 nM were used as controls for PDK1 or SGK1 assay respectively. For PI3K assay, 50 µM ATP, 50 µM inhibitor, 100 ng recombinant PI3 kinase (SignalChem, Richmond, Canada, # P27-10H-05) and 1.5 mg/mL multilamellar phospholipid vesicles containing PC/PE/PS/PIP2 (at mass ratio of 1/0.5/0.2/0.1) were used. Inhibitor blanks as well as LY-294002 between 78 and […]
# AKT3 = assay: KINOMEscan; details: 50000 nM
# Procedure: KINOMEscan™ selectivity screen
# as §1, §2
# PLK2 = assay: KINOMEscan; details: 50000 nM
# Procedure: KINOMEscan™ selectivity screen
# as §3, §2
# AMPK-alpha2 = assay: KINOMEscan; details: 50000 nM
# Procedure: KINOMEscan™ selectivity screen
# as §1, §2
# DDR2 = assay: KINOMEscan; details: 50000 nM
# Procedure: KINOMEscan™ selectivity screen
# as §1, §2
# SIK = assay: KINOMEscan; details: 50000 nM
# Procedure: KINOMEscan™ selectivity screen
# as §1, §2
# HIPK1 = assay: KINOMEscan; details: 50000 nM
# Procedure: KINOMEscan™ selectivity screen
# as §3, §2
# LRRK2 = assay: KINOMEscan; details: 50000 nM
# Procedure: KINOMEscan™ selectivity screen
# as §1, §2
# [4] = test system: JAK1(JH2domain-pseudokinase); assay: KINOMEscan; details: 50000 nM
# Procedure: KINOMEscan™ selectivity screen
# as §1, §2
# JNK2 = assay: KINOMEscan; details: 50000 nM
# Procedure: KINOMEscan™ selectivity screen
# as §1, §2
smiles,measurement,setting,value
"Oc1cc(-c2ccccc2)c2ccccc2n1 [G7, 4-phenylquinolin-2(1H)-one]",Percent Control,AURKB,91%
same,Percent Control,[1],72%
same,Percent Control,RET(V804L),83%
same,Percent Control,[2],23%
same,Percent Control,MUSK,75%
same,Percent Control,NEK7,78%
same,Percent Control,ACVR2B,100%
same,Percent Control,EPHA3,66%
same,Percent Control,PIK3CB,69%
same,Percent Control,MINK,77%
same,Percent Control,PDPK1,81%
same,Percent Control,ICK,71%
same,Percent Control,MET,73%
same,Percent Control,PCTK2,99%
same,Percent Control,PRKR,74%
same,Percent Control,YSK1,70%
same,Percent Control,"EGFR(L747-T751del,Sins)",77%
same,Percent Control,EGFR(L861Q),71%
same,Percent Control,MARK4,88%
same,Percent Control,SGK2,62%
same,Percent Control,ERN1,69%
same,Percent Control,RET(M918T),70%
same,Percent Control,ALK,95%
same,Percent Control,AMPK-alpha1,90%
same,Percent Control,LATS1,87%
same,Percent Control,[3],66%
same,Percent Control,MKNK2,65%
same,Percent Control,AXL,42%
same,effect on SGK1 activity,SGK1,no effects
same,Percent Control,AKT3,100%
same,Percent Control,PLK2,78%
same,Percent Control,AMPK-alpha2,97%
same,Percent Control,DDR2,87%
same,Percent Control,SIK,65%
same,Percent Control,HIPK1,74%
same,Percent Control,LRRK2,55%
same,Percent Control,[4],5.5%
same,Percent Control,JNK2,68%
